ChEMBL document CHEMBL1201862, “PubChem BioAssay data set” (2004)
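Where inhibition never reached the appropriate level, the endpoint shown equals the highest concentration tested. Otherwise, values were interpolated linearly from a five-concentration, 48-hour dose response in 96-well plates. The concentration for 50% growth inhibition is given as GI50.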 Calls of active or inactive are those of the source. Rule as the data show it: active = GI50 up to about 1.1 µM and inactive = higher.

Experiments:
Experiment in all cases: growth of human tumour cells (NCI), 48 h
A498 = system: A498
ACHN = system: ACHN
CAKI-1 = system: CAKI-1
HOP-92 = system: HOP-92
K562 = system: K562
KM12 = system: KM12
M14 = system: M14
OVCAR-3 = system: OVCAR-3
SF-295 = system: SF-295
SK-MEL-2 = system: SK-MEL-2
SK-MEL-5 = system: SK-MEL-5
SN12C = system: SN12C
SNB-75 = system: SNB-75
SR = system: SR
UO-31 = system: UO-31
RXF 393 = system: RXF 393

SMILES | GI50 (A498) | GI50 (ACHN) | GI50 (CAKI-1) | GI50 (HOP-92) | GI50 (K562) | GI50 (KM12) | GI50 (M14) | GI50 (OVCAR-3) | GI50 (SF-295) | GI50 (SK-MEL-2) | GI50 (SK-MEL-5) | GI50 (SN12C) | GI50 (SNB-75) | GI50 (SR) | GI50 (UO-31) | GI50 (RXF 393)
N=C(NC(=N)Nc1ccc(S(=O)(=O)Nc2cnc3ccccc3n2)cc1)Nc1ccc(Br)cc1 | > 100 µM (inactive) | > 100 µM (inactive) | > 100 µM (inactive) | > 100 µM (inactive) | > 100 µM (inactive) | > 100 µM (inactive) | > 100 µM (inactive) | > 100 µM (inactive) | > 100 µM (inactive) | > 100 µM (inactive) | > 100 µM (inactive) | > 100 µM (inactive) | 40.6 µM (inactive) | > 100 µM (inactive) | > 100 µM (inactive) | –
O=C(CCC(=O)Nc1ccc(Cl)c(Cl)c1)CC(=O)c1ccc2ccccc2c1 | > 100 µM (inactive) | 39.8 µM (inactive) | 83 µM (inactive) | > 100 µM (inactive) | 17.1 µM (inactive) | 82 µM (inactive) | > 100 µM (inactive) | > 100 µM (inactive) | > 100 µM (inactive) | 41.8 µM (inactive) | > 100 µM (inactive) | > 100 µM (inactive) | 26.3 µM (inactive) | – | > 100 µM (inactive) | > 100 µM (inactive)
CN1Cc2ccccc2C2(COc3ccccc3C2=O)C1 (stereo not given) | – | > 100 µM (inactive) | > 100 µM (inactive) | 20 µM (inactive) | 75.2 µM (inactive) | – | > 100 µM (inactive) | 77.8 µM (inactive) | > 100 µM (inactive) | > 100 µM (inactive) | 56.2 µM (inactive) | > 100 µM (inactive) | > 100 µM (inactive) | 31.8 µM (inactive) | 57.4 µM (inactive) | > 100 µM (inactive)
C[C@]12CCc3nonc3C1CC[C@@H]1C2CC[C@]2(C)C(=O)CCC12 (stereo not given in full) | 22.9 µM (inactive) | 74 µM (inactive) | 14.8 µM (inactive) | 20 µM (inactive) | 33.7 µM (inactive) | 20.9 µM (inactive) | 64.9 µM (inactive) | 25.5 µM (inactive) | 26.3 µM (inactive) | 24.5 µM (inactive) | 17.5 µM (inactive) | 35.1 µM (inactive) | 28.8 µM (inactive) | – | 20.6 µM (inactive) | 35.2 µM (inactive)
COC(=O)C(=O)C(C(=O)C(=O)Nc1ccc([N+](=O)[O-])cc1[N+](=O)[O-])c1nc2ccc([N+](=O)[O-])cc2nc1O (stereo not given) | 76.9 µM (inactive) | > 100 µM (inactive) | > 100 µM (inactive) | > 100 µM (inactive) | > 100 µM (inactive) | > 100 µM (inactive) | > 100 µM (inactive) | > 100 µM (inactive) | > 100 µM (inactive) | – | – | > 100 µM (inactive) | 14.6 µM (inactive) | 43 µM (inactive) | 53 µM (inactive) | 43.3 µM (inactive)
O=C(CC(=O)N1N=C(c2ccccc2)C(/N=N/c2ccccc2Cl)C1=O)Nc1ccccc1Cl (stereo not given) | > 10 µM (inactive) | 20.2 µM (inactive) | 30.8 µM (inactive) | – | 31.1 µM (inactive) | 14.1 µM (inactive) | 37.9 µM (inactive) | 28.1 µM (inactive) | 27.4 µM (inactive) | 43.5 µM (inactive) | 17.1 µM (inactive) | 58.5 µM (inactive) | 21.1 µM (inactive) | 19.3 µM (inactive) | 57.9 µM (inactive) | –
NC(CCCNc1ccc(O)cc1)C(=O)O (stereo not given) | 41.3 µM (inactive) | 26 µM (inactive) | 48.2 µM (inactive) | 26.5 µM (inactive) | 35.4 µM (inactive) | 49.2 µM (inactive) | 31.8 µM (inactive) | 18.1 µM (inactive) | > 100 µM (inactive) | 31 µM (inactive) | 25.8 µM (inactive) | > 47.5 µM (inactive) | 42.5 µM (inactive) | 25.3 µM (inactive) | > 60 µM (inactive) | 26.1 µM (inactive)
O=C(c1ccccc1)c1c(CC(O)c2ccncc2)n(C(=O)c2ccccc2)c2ccccc12 (stereo not given) | – | 20.2 µM (inactive) | 22.3 µM (inactive) | 15 µM (inactive) | > 10 µM (inactive) | 19.2 µM (inactive) | 16.9 µM (inactive) | 14 µM (inactive) | 12.1 µM (inactive) | 16 µM (inactive) | 16.1 µM (inactive) | – | 7.83 µM (inactive) | 16.6 µM (inactive) | 14.6 µM (inactive) | –
CC(C)(C)C(=O)OCC1CCC(n2cnc3c(=O)[nH]c(N)nc32)O1 (stereo not given) | > 100 µM (inactive) | > 100 µM (inactive) | > 100 µM (inactive) | > 100 µM (inactive) | > 100 µM (inactive) | > 100 µM (inactive) | > 100 µM (inactive) | > 100 µM (inactive) | > 100 µM (inactive) | > 100 µM (inactive) | > 100 µM (inactive) | > 100 µM (inactive) | 40 µM (inactive) | – | > 100 µM (inactive) | –
CCCCN(CCCC)C(=O)C(=O)C(C(=O)c1ccc(OC)cc1)c1ccc(OC)cc1 (stereo not given) | – | > 100 µM (inactive) | > 100 µM (inactive) | 27.4 µM (inactive) | > 100 µM (inactive) | > 100 µM (inactive) | 92.3 µM (inactive) | > 100 µM (inactive) | > 100 µM (inactive) | > 100 µM (inactive) | 69 µM (inactive) | > 100 µM (inactive) | – | – | > 100 µM (inactive) | 35.5 µM (inactive)
CN1CCCS/C1=C1/SC(=S)N(c2ccccc2)C1=O | > 100 µM (inactive) | > 100 µM (inactive) | > 100 µM (inactive) | > 100 µM (inactive) | > 100 µM (inactive) | > 100 µM (inactive) | > 100 µM (inactive) | > 100 µM (inactive) | > 100 µM (inactive) | > 100 µM (inactive) | > 100 µM (inactive) | > 100 µM (inactive) | > 100 µM (inactive) | > 100 µM (inactive) | > 100 µM (inactive) | > 100 µM (inactive)
Cn1cc2ccccc2c1-c1nc(F)nc(Nc2ccc(N)cc2)n1 | 6.93 µM (inactive) | 23.3 µM (inactive) | 15 µM (inactive) | 15.1 µM (inactive) | 8.63 µM (inactive) | 14 µM (inactive) | 13.6 µM (inactive) | 20.8 µM (inactive) | 16.2 µM (inactive) | 13.3 µM (inactive) | 11.5 µM (inactive) | 17.2 µM (inactive) | 11.9 µM (inactive) | 16.8 µM (inactive) | 17.3 µM (inactive) | 15.3 µM (inactive)
NC(=O)c1ncn(Cc2ccccc2)c1CNC(N)=S | – | > 100 µM (inactive) | – | – | > 100 µM (inactive) | > 100 µM (inactive) | > 100 µM (inactive) | > 100 µM (inactive) | > 100 µM (inactive) | – | > 100 µM (inactive) | > 100 µM (inactive) | 91.4 µM (inactive) | > 100 µM (inactive) | > 100 µM (inactive) | > 100 µM (inactive)
COc1cccc2c1C(=O)c1c(O)c3c(c(O)c1C2=O)C[C@@](O)(C(=O)CO)CC3OC1CC(NCCCC(OC(C)=O)OC(C)=O)C(O)C(C)O1 (stereo not given in full) | 0.0019 µM (active) | 0.00243 µM (active) | 0.00296 µM (active) | 0.00277 µM (active) | 0.000512 µM (active) | 0.00279 µM (active) | 0.000867 µM (active) | 0.0045 µM (active) | 0.00147 µM (active) | 0.00192 µM (active) | – | 0.00152 µM (active) | 0.0015 µM (active) | < 0.0001 µM (active) | 0.00151 µM (active) | 0.00172 µM (active)
Fc1cccc(Cl)c1C1SCc2nc3ccccc3n21 (stereo not given) | 83.2 µM (inactive) | 39.2 µM (inactive) | 27.1 µM (inactive) | 6.62 µM (inactive) | 25.8 µM (inactive) | 24.8 µM (inactive) | 34 µM (inactive) | 21.9 µM (inactive) | 23.7 µM (inactive) | 21.1 µM (inactive) | 15.4 µM (inactive) | 41.4 µM (inactive) | 38.5 µM (inactive) | 17.3 µM (inactive) | 27.9 µM (inactive) | 31.6 µM (inactive)
CC1=C(Cl)C=CP(=O)(Oc2ccccc2)C1 (stereo not given) | – | > 100 µM (inactive) | > 100 µM (inactive) | > 100 µM (inactive) | > 10 µM (inactive) | > 100 µM (inactive) | 19.1 µM (inactive) | > 100 µM (inactive) | > 100 µM (inactive) | 41.3 µM (inactive) | 55.6 µM (inactive) | – | – | – | 38.3 µM (inactive) | –
C/C(=N\NC(=O)C[N+](C)(C)C)c1sc(-c2cccnc2)nc1C | – | > 100 µM (inactive) | – | 24.9 µM (inactive) | > 100 µM (inactive) | > 100 µM (inactive) | > 100 µM (inactive) | > 100 µM (inactive) | > 100 µM (inactive) | > 100 µM (inactive) | > 100 µM (inactive) | – | > 100 µM (inactive) | – | 41.2 µM (inactive) | 52.1 µM (inactive)
COc1ccc(Sc2ccccc2[N+](=O)[O-])cc1 | 50.7 µM (inactive) | – | – | 18.7 µM (inactive) | 3.32 µM (inactive) | 6.44 µM (inactive) | 4.04 µM (inactive) | 12.4 µM (inactive) | > 10 µM (inactive) | 32.1 µM (inactive) | 45.9 µM (inactive) | 21.2 µM (inactive) | 3.67 µM (inactive) | 17.1 µM (inactive) | 23.4 µM (inactive) | 10.2 µM (inactive)
CC1=C2N3C[C@@H](n4c(=O)n(C)c(=O)n43)C23CCC1n1c(=O)n(C)c(=O)n13 | > 100 µM (inactive) | > 100 µM (inactive) | > 100 µM (inactive) | – | 61 µM (inactive) | > 100 µM (inactive) | > 100 µM (inactive) | – | > 100 µM (inactive) | – | > 100 µM (inactive) | > 100 µM (inactive) | > 100 µM (inactive) | – | > 100 µM (inactive) | –
O=C1CCCC/C1=C\c1ccc(Cl)c(Cl)c1 | 58.5 µM (inactive) | 18.3 µM (inactive) | 19.2 µM (inactive) | – | 18.9 µM (inactive) | – | 19.9 µM (inactive) | – | – | – | 17.2 µM (inactive) | 16.6 µM (inactive) | 16.3 µM (inactive) | – | 17.8 µM (inactive) | –
